{
  "source": "patent US20240182869A1",
  "about": "(priority 2021, published 2024)",
  "key": {"[1]": {"system": "C. perfringens", "type": "cell-based, Clostridium perfringens"}, "[2]": {"system": "C. perfringens", "type": "cell-based, Clostridium perfringens", "remark": "listed apart in the source"}, "[3]": {"system": "C. perfringens strain CP6", "type": "in vivo, Ross x Ross broiler chickens", "details": "T3 BMD 55 gm/metric ton in feed, C. perfringens challenge; for Adjusted FCR: adjusted for mortality"}, "[4]": {"system": "C. perfringens strain CP6", "type": "in vivo, Ross x Ross broiler chickens", "details": "for Adjusted FCR: adjusted for mortality"}, "[5]": {"system": "C. perfringens isolates", "type": "cell-based, Clostridium perfringens"}, "[6]": {"details": "Day 0 to 14, T3 BMD 55 gm/metric ton, C. perfringens challenge"}, "[7]": {"details": "Day 0 to 22, T3 BMD 55 gm/metric ton, C. perfringens challenge"}, "[8]": {"details": "Day 0 to 28, T3 BMD 55 gm/metric ton, C. perfringens challenge"}, "[9]": {"details": "T3 BMD 55 gm/metric ton, C. perfringens challenge, DOT 22"}},
  "note": "Read-outs that look alike come from different tables or passages of the source.",
  "data": [
    {"substance": "Clostridium phage vB_CpeP_ACP8", "values": [
      {"measurement": "Virulence Index", "setting": "[1]", "value": 0.92},
      {"measurement": "Cocktail MOI", "setting": "[2]", "value": 0.001},
      {"measurement": "Individual MOI", "setting": "[2]", "value": 0.01}
    ]},
    {"substance": "Clostridium phage vB_CpeM_ACP45", "values": [
      {"measurement": "Virulence Index", "setting": "[1]", "value": 0.91},
      {"measurement": "Cocktail MOI", "setting": "[2]", "value": 0.01},
      {"measurement": "Individual MOI", "setting": "[2]", "value": 0.01}
    ]},
    {"substance": "Bacitracin methylene disalicylate [Bacitracin Methylene Disalicylate (BMD)]", "values": [
      {"measurement": "Feed Intake", "setting": "[3]; Day 0 to 14", "value": 4.87, "unit": "A Kg/Cage"},
      {"measurement": "Non-Adjusted FCR", "setting": "[3]; Day 0 to 14", "value": 1.217, "unit": "AB"},
      {"measurement": "Weight Gain", "setting": "[3]; Day 0 to 14", "value": 0.430, "unit": "A ^ kg"},
      {"measurement": "Adjusted FCR", "setting": "[3]; Day 0 to 14", "value": 1.186, "unit": "AB"},
      {"measurement": "Feed Intake", "setting": "[3]; Day 0 to 22", "value": 11.55, "unit": "AB Kg/Cage"},
      {"measurement": "Non-Adjusted FCR", "setting": "[3]; Day 0 to 22", "value": 1.662, "unit": "BC"},
      {"measurement": "Weight Gain", "setting": "[3]; Day 0 to 22", "value": 0.861, "unit": "AB kg"},
      {"measurement": "Adjusted FCR", "setting": "[3]; Day 0 to 22", "value": 1.470, "unit": "AB"},
      {"measurement": "Feed Intake", "setting": "[3]; Day 0 to 28", "value": 16.095, "unit": "BC Kg/Cage"},
      {"measurement": "Non-Adjusted FCR", "setting": "[3]; Day 0 to 28", "value": 1.867, "unit": "BC"},
      {"measurement": "Overall Mortality", "setting": "[3]; Day 0 to 28", "value": 24.00, "unit": "AB Percent"},
      {"measurement": "Weight Gain", "setting": "[3]; Day 0 to 28", "value": 1.236, "unit": "AB kg"},
      {"measurement": "Adjusted FCR", "setting": "[3]; Day 0 to 28", "value": 1.581, "unit": "A"},
      {"measurement": "NE Percent Mortality", "setting": "[3]", "value": 18.00, "unit": "A Percent"},
      {"measurement": "Lesion Scores Dunn's All-Pairwise Comparisons Test", "setting": "[3]; DOT 22", "value": 33.00, "unit": "AB"},
      {"measurement": "Lesion Scores Kruskal-Wallis One-Way AOV (Mean Rank)", "setting": "[3]; DOT 22", "value": 33.00},
      {"measurement": "Lesion Scores Mean Score (Hofacre, 1998)", "setting": "[3]; DOT 22", "value": 0.60, "unit": "AB"},
      {"measurement": "NE Percent Mortality", "setting": "[3]; listed as BMD", "value": 18, "unit": "%"},
      {"measurement": "Feed Intake", "setting": "[4]; [6]", "value": 4.55, "unit": "A Kg/Cage"},
      {"measurement": "Non-Adjusted FCR", "setting": "[4]; [6]", "value": 1.353, "unit": "AB"},
      {"measurement": "Weight Gain", "setting": "[4]; [6]", "value": 0.338, "unit": "A kg"},
      {"measurement": "Adjusted FCR", "setting": "[4]; [6]", "value": 1.353, "unit": "AB"},
      {"measurement": "Feed Intake", "setting": "[4]; [7]", "value": 10.47, "unit": "A Kg/Cage"},
      {"measurement": "Non-Adjusted FCR", "setting": "[4]; [7]", "value": 1.403, "unit": "AB"},
      {"measurement": "Weight Gain", "setting": "[4]; [7]", "value": 0.776, "unit": "A kg"},
      {"measurement": "Adjusted FCR", "setting": "[4]; [7]", "value": 1.361, "unit": "AB"},
      {"measurement": "Feed Intake", "setting": "[4]; [8]", "value": 15.93, "unit": "A Kg/Cage"},
      {"measurement": "Non-Adjusted FCR", "setting": "[4]; [8]", "value": 1.483, "unit": "B"},
      {"measurement": "Overall Mortality", "setting": "[4]; [8]", "value": 3.33, "unit": "AB Percent"},
      {"measurement": "Weight Gain", "setting": "[4]; [8]", "value": 1.154, "unit": "A kg"},
      {"measurement": "Adjusted FCR", "setting": "[4]; [8]", "value": 1.453, "unit": "A"},
      {"measurement": "Lesion Scores Dunn's All-Pairwise Comparisons Test", "setting": "[4]; [9]", "value": 13.83, "unit": "A"},
      {"measurement": "Lesion Scores Kruskal-Wallis One-Way AOV (Mean Rank)", "setting": "[4]; [9]", "value": 13.83},
      {"measurement": "Lesion Scores Mean Score (Hofacre, 1998)", "setting": "[4]; [9]", "value": 0.33, "unit": "A"},
      {"measurement": "FCR to DOT 28 versus challenge control (T2)", "setting": "[4]; both doses (T4 & T5) and BMD (T3)", "value": "significantly better than the challenge control"}
    ]},
    {"substance": "Clostridium phage vB_CpeM_SMS460", "values": [
      {"measurement": "Virulence Index", "setting": "[1]", "value": 0.95},
      {"measurement": "Clostridium perfringens strains capable of being infected or lysed (host range, FIG. 2)", "setting": "[5]", "value": "ATCC 13124, Q143.CN7, JBCNJ055, Q100,CN13, Q159.4C, JBFR063, M030.1C, CP_UoA_CA_39, CP_UoA_CA_24, JBCNI056, JBCNC058, JBCNC056 and CP_UoA_CA_132"},
      {"measurement": "Cocktail MOI", "setting": "[2]", "value": 0.001},
      {"measurement": "Individual MOI", "setting": "[2]", "value": 0.01}
    ]},
    {"substance": "Clostridium phage vB_CpeP_VLR28", "values": [
      {"measurement": "Virulence Index", "setting": "[1]", "value": 0.18},
      {"measurement": "Cocktail MOI", "setting": "[2]", "value": 0.001},
      {"measurement": "Individual MOI", "setting": "[2]", "value": 0.01}
    ]},
    {"substance": "Clostridium phage vB_CpeP_ACP5", "values": [
      {"measurement": "Virulence Index", "setting": "[1]", "value": 0.86},
      {"measurement": "Cocktail MOI", "setting": "[2]", "value": 0.001},
      {"measurement": "Individual MOI", "setting": "[2]", "value": 0.01}
    ]},
    {"substance": "Clostridium phage vB_CpeM_AE3110", "values": [
      {"measurement": "Virulence Index", "setting": "[1]", "value": 0.24},
      {"measurement": "Cocktail MOI", "setting": "[2]", "value": 0.01},
      {"measurement": "Individual MOI", "setting": "[2]", "value": 0.1}
    ]},
    {"substance": "Clostridium phage vB_CpeP_ACP10", "values": [
      {"measurement": "Virulence Index", "setting": "[1]", "value": 0.19},
      {"measurement": "Cocktail MOI", "setting": "[2]", "value": 0.001},
      {"measurement": "Individual MOI", "setting": "[2]", "value": 0.1}
    ]},
    {"substance": "Clostridium phage vB_CpeS_RO96", "values": [
      {"measurement": "Virulence Index", "setting": "[1]", "value": 0.67},
      {"measurement": "Cocktail MOI", "setting": "[2]", "value": 0.01},
      {"measurement": "Individual MOI", "setting": "[2]", "value": 0.01}
    ]},
    {"substance": "Clostridium phage vB_CpeP_ACP22", "values": [
      {"measurement": "Virulence Index", "setting": "[1]", "value": 0.14},
      {"measurement": "Cocktail MOI", "setting": "[2]", "value": 0.01},
      {"measurement": "Individual MOI", "setting": "[2]", "value": 0.1}
    ]},
    {"substance": "Clostridium phage vB_CpeP_ACP11", "values": [
      {"measurement": "Virulence Index", "setting": "[1]", "value": 0.03},
      {"measurement": "Cocktail MOI", "setting": "[2]", "value": 0.01},
      {"measurement": "Individual MOI", "setting": "[2]", "value": 0.1}
    ]},
    {"substance": "Clostridium phage vB_CpeP_MN6171", "values": [
      {"measurement": "Virulence Index", "setting": "[1]", "value": 0.19},
      {"measurement": "Cocktail MOI", "setting": "[2]", "value": 0.01},
      {"measurement": "Individual MOI", "setting": "[2]", "value": 0.01}
    ]}
  ]
}
